# Laboratory results as given in publication PMC9332833 (Cancers, 2022).
# “Also recorded” adds a separate entry of the source.
# Experiments:
# [1] = system: CD34+ cells from CML patients; experiment: MTT viability assay, CML CD34+ cells; format: cell-based; settings: Homo sapiens, 48 h
# Description: Blood samples were taken (venipuncture, EDTA-K2 Vacutainer tubes, Becton Dickinson, Franklin Lakes, NJ, USA) from 8 chronic phase CML patients (CML1–CML8; 4 men and 4 women, aged 39–79) diagnosed at the Department of Hematology, University Clinical Center, Medical University of Warsaw, following their written consent. The diagnosis was carried out by qualified clinical staff based on an interview, blood parameters and molecular tests detecting BCR-ABL1 (transcript b3a2). Peripheral blood mononuclear cells were immediately isolated from the fresh blood sample using standard protocol (Supplementary Methods). […]
# Cells were seeded in 96-well plates; after 24 h, medium with the appropriate drug concentration was added to each well. […] Absorbance was read using an iMark Microplate absorbance reader (Bio-Rad, Hercules, CA, USA). Results were calculated relative to cells treated with DMSO only.
# (§1) […] Next, we isolated CD34+ cells (EasySep™ Human CD34 Positive Selection Kit II, StemCell Technologies, Vancouver, Canada), counted them and assessed viability with Muse Cell Analyzer (Merck Millipore, Burlington, MA, USA). […] The purity of the live CD34+ fraction was assessed by flow cytometry with anti-human CD34-APC antibody, compared with an appropriate isotype control (Biolegend, San Diego, CA, USA), and propidium iodide (Sigma-Aldrich, St. Louis, MO, USA). […]
# [2] = system: CD34+/CD38- leukemia stem cells from CML patients; experiment: Annexin V-FITC/PI apoptosis in CD34+/CD38- subpopulation; format: cell-based, human; settings: 2.5 or 5 µM, within 24 h, 3 patients; dose dependent
# Description: (§2) Pre-cultured cells were treated with BK124.1 or DMSO for 24 h. For purity analysis, cells were stained with anti-human CD34-APC antibody, anti-human CD38-PE (Biolegend, San Diego, CA, USA), and propidium iodide according to the manufacturers’ protocols. For apoptosis analysis, cells were additionally stained with Annexin V-FITC kit (BD, Franklin Lakes, NJ, USA) according to the manufacturer’s protocol. Appropriate isotype controls were included. Stained cells were immediately analyzed on a BD LSRFortessa flow cytometer with FlowJo software (BD, Franklin Lakes, NJ, USA), after exclusion of doublets. Purity was analyzed on live cells only, and apoptosis separately for each population of cells (CD34^+/CD38^+ or CD34^+/CD38^−).
# as §1
# (§3) […] In both cases stained cells were immediately analyzed on a BD LSRFortessa flow cytometer and analyzed with FlowJo software (BD, Franklin Lakes, NJ, USA). […]
# [3] = system: CD34+/CD38+ cells from CML patients; experiment: Annexin V-FITC/PI apoptosis in CD34+/CD38+ subpopulation; format: cell-based, human; settings: 2.5 or 5 µM, 24 h
# Description: as §2, §1, §3
# K562 cells = experiment: K562 in BK124.1 long term experiment (6 months), MDR1 induction; format: cell-based, human; settings: 1 µM or 2 µM for at least 6 months
# [4] = Pharmacokinetics in Balb/c nude mice; format: in vivo; settings: for MRT last / half-life / AUC(0-inf) / C0: Balb/c nude; for AUC(0-inf): extrapolated to infinity; for C0: extrapolated to t = 0
# Description: Eight-week-old female Balb/c nude mice were randomly divided into test groups and injected with BK124.1 either intraperitoneally, at 20 mg/kg or 40 mg/kg concentrations, or intravenously at 20 mg/kg concentration. The compound blood concentration was measured 15 min, 6, 12, and 24 h post-injection. For each time point, 4 mice were sacrificed. BK124.1 concentration in the bloodstream was analyzed using mass spectrometry. Toxicology was assessed by examining physiological and morphological changes at the injection site, the appearance of internal organs (liver, heart, kidneys, and spleen), blood tests, body mass, and animal behavior.
# [5] = IP 20 mg/kg, whole blood, female mouse
# [6] = IP 40 mg/kg, whole blood, female mouse
# [7] = IV 20 mg/kg, whole blood, female mouse
smiles,measurement,setting,value
"CCC12C(=O)C(CC)(C(c3ccccc3)=C1c1ccccc1)C1C(=O)N(CC(O)CNC(C)C)C(=O)C12 (stereo not shown) [BK124.1, 4-[2-hydroxy-3-(propan-2-ylamino)propyl]-1,7-diethyl-8,9-diphenyl-4-azatricyclo [5.2.1.02,6]dec-8-ene-3,5,10-trione]",IC50,[1],1.5 µM
same,Apoptosis in CD34+/CD38- leukemia stem cells,[2],induced apoptosis
same,Apoptosis in CD34+/CD38+ cells compared with CD34+/CD38- cells,[3],even higher apoptosis
same,Induction of MDR1 in standard K562 cells,K562 cells,not able to induce MDR1; also recorded: unable to induce MDR1 expression
same,MRT last,[4]; [5],5.09 h
same,half-life,[4]; [5],3.53 h
same,AUC(0-inf),[4]; [5],9580 ng·h/mL
same,C0,[4]; [5],1740 ng/mL
same,MRT last,[4]; [6],7.48 h
same,half-life,[4]; [6],5.18 h
same,AUC(0-inf),[4]; [6],23500 ng·h/mL
same,C0,[4]; [6],2760 ng/mL
same,MRT last,[4]; [7],4.78 h
same,half-life,[4]; [7],3.31 h
same,AUC(0-inf),[4]; [7],6620 ng·h/mL
same,C0,[4]; [7],1020 ng/mL
same,"AUClast, dose normalized",[4]; [5],3.24 kg·ng·h/mL/mg
same,"AUC∞, dose normalized",[4]; [5],479 kg·ng·h/mL/mg
same,"AUClast, dose normalized",[4]; [6],16.18 kg·ng·h/mL/mg
same,"AUC∞, dose normalized",[4]; [6],587 kg·ng·h/mL/mg
same,"AUClast, dose normalized",[4]; [7],2.50 kg·ng·h/mL/mg
same,"AUC∞, dose normalized",[4]; [7],331 kg·ng·h/mL/mg
same,half-life,"[4]; female, mouse, IP 20 mg/kg, blood",3.53 h
same,half-life,"[4]; female, mouse, IP 40 mg/kg, blood",5.18 h
same,half-life,"[4]; female, mouse, IV 20 mg/kg, blood",3.31 h
